According to patent US20150119352A1, “DINUCELOSIDE POLYPHOSPHATES FOR THE TREATMENT OF PAIN” (GlobalAcorn Ltd., priority 2012, published 2015):
Where two headings read alike, the source gives them in different places.

Assays:
[1] = target: T1, rat homomeric P2X3 receptors (Rattus norvegicus, UniProt P49654); assay: Whole-cell patch clamp on HEK cells expressing rat homomeric P2X3 receptors; assay type: cell-based; settings: for nH of the activation dose-response curve: activation of P2X3 receptors; for depression of P2X3 current: 1 μM
T1 construct: transfected with rat full-length P2X3 cDNA subcloned into pIRES2-EGFP; expressed in transfected cells; host or cells: HEK293T
T1 sequence (P49654 1-397): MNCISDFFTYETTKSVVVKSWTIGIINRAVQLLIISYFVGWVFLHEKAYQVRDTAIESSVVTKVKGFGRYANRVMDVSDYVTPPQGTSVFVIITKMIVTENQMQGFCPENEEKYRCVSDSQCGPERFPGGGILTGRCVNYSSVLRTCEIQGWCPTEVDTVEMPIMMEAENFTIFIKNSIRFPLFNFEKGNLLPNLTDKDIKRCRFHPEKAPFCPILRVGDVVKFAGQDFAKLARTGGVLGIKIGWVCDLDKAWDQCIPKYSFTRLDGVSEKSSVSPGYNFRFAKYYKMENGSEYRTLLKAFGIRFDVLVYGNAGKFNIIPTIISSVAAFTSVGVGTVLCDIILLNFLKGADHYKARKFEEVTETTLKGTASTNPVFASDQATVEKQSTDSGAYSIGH
Experimental: (§1) Rat trigeminal (TG), nodose (NG) or dorsal root ganglion (DRG) neurons in culture were prepared as described previously (Sokolova et al., 2001; Simonetti et al., 2006). Neurons were plated on poly-L-lysine (0.2 mg/mL)-coated Petri dishes and cultured for 1 to 2 days under an atmosphere containing 5% CO2. Cells were used within 2 days of plating when they lacked processes. HEK293T cells were prepared as reported previously (Fabbretti et al., 2004; Sokolova et al., 2004) and transfected with rat full-length P2X3 cDNA subcloned into pIRES2-EGFP (Clontech, Mountain View, Calif., USA).
(§2) Trigeminal, nodose, DRG neurons or HEK cells were recorded in the whole-cell configuration while being continuously superfused (at 2 mL/min) with control solution containing (in mM): 152 NaCl, 5 KCl, 1 MgCl2, 2 CaCl2, 10 glucose, and 10 HEPES; pH was adjusted to 7.4 with NaOH and osmolarity was adjusted to 320 mOsM with glucose. […] Responses to selective P2X3 receptor agonist α,β-methylene-ATP (α,β-meATP; resistant to ectoATPase hydrolysis, Sigma-Aldrich) were measured using an EPC-9 amplifier and HEKA Patch Master software (HEKA Electronik, Germany). Cells were voltage-clamped at −70 mV. In most cells, series resistance was compensated by 80%. To determine half effective concentration of agonist (EC50), dose-response curves for α,β-meATP were constructed by applying different agonist doses to the same cells and fitting them with a logistic equation (Origin 8.0, Microcal, Northampton, Mass.).
Agonists and antagonists were applied, usually for 2 sec, via a rapid superfusion system (Rapid Solution Changer RSC-200; BioLogic Science Instruments, Grenoble, France) placed 100 to 150 μm near the cell. The time for the solution exchange across the cell was approximately 30 ms, as judged with liquid junction potential measurements. All chemicals, including enzymes for cell culture, were from Sigma (St. Louis, Mo.). Culture media were obtained from Invitrogen (Milan, Italy).
The peak amplitudes of the responses were measured using HEKA Patch Master software. For each agonist, dose-response plots were constructed by normalizing data with respect to the maximum response. All data are presented as mean±S.E.M. (n=the number of cells) with statistical significance assessed by paired t-test (for parametric data) or Mann-Whitney rank sum test (for non-parametric data). Best fits of data with a sigmoid function were compared with respective control fits using Origin 8.0 software. A value of P<0.05 was accepted as indicative of statistically significant difference.
The inhibitory (suppressive) potencies of AppNHppA and AppCH2ppA via high affinity desensitization (HAD) were evaluated. The inventors applied both synthetic analogues in different experiments during rhythmic 2 s long (2 […]) activations of P2X3 receptors using 10 μM α,β-meATP (for protocol see FIG. 2 top).

[2] = target: T2, native P2X3 receptors, trigeminal ganglia (TG) neurons (Rattus norvegicus, UniProt P49654); assay: α,β-meATP-induced currents in cultured trigeminal ganglia neurons; assay type: cell-based; settings: read-out: inhibition (suppression) of the peak current
T2 construct: Modulation of Native P2X3 Receptors in Rat Cultured Sensory Neurons; endogenous in cells; host or cells: primary cultured rat trigeminal ganglion and dorsal root ganglion neurons
T2 sequence (P49654 1-397): T1 sequence (P49654 1-397)
Experimental: as §1
as §2, with “To determine half effective concentration of agonist (EC50), dose-response curves for α,β-meATP were constructed by applying different agonist doses to the same cells and fitting them with a logistic equation (Origin 8.0, Microcal, Northampton, Mass.).” left out
(§3) The peak amplitudes of the responses were measured using HEKA Patch Master software. […]

[3] = system: native P2X3 receptors, trigeminal ganglia (TG) neurons; assay: as above; assay type: cell-based, rat; settings: 1 μM, TG neurons
Experimental: as §1
as §2, with “To determine half effective concentration of agonist (EC50), dose-response curves for α,β-meATP were constructed by applying different agonist doses to the same cells and fitting them with a logistic equation (Origin 8.0, Microcal, Northampton, Mass.).” left out
as §3

Row | depression of P2X3 current ([1]; α,β-meATP pulses every 30 s (high rate)) [%] | depression of P2X3 current ([1]; α,β-meATP pulses every 2 min (low rate)) [%] | EC50 ([1]; agonist applied for 2 s, read-out: EC50 for activation of P2X3 mediated currents) [µM] | IC50 ([1]; test pulses of 10 μM α,β-meATP every 2 min, measured 6 min after drug application, read-out: IC50 for inhibition of P2X3 mediated currents) [µM] | SMILES | EC50 [1] [µM] | IC50 [1] [µM] | amplitude of the following α,β-meATP response ([1]; 10 nM applied for 6 min) | inhibition (suppression) of test responses ([1]; 3 μM) | induction of membrane currents ([1]; 0.1 or 1 μM) | induction of membrane currents ([1]; 10 or 100 μM) | remaining activity at 0.1 µM ([1]; HEK293, read-out: test responses reduced to (% of control)) [%] | nH of the activation dose-response curve [1] | current response as % of the response induced by 10 μM of α,β-meATP ([1]; saturating 1 mM concentration, same cell) [%] | inhibition at 1 µM [2] [%] | inhibition of sustained residual component [3] [%]
1 | – | – | – | – | Nc1ncnc2c1ncn2[C@@H]1O[C@H](COP(=O)(O)OP(=O)(O)NP(=O)(O)OP(=O)(O)OC[C@H]2O[C@@H](n3cnc4c(N)ncnc43)C(O)C2O)C(O)C1O (stereo in doubt) [AppNHppA] | 41.6 ± 1.3 | 0.2 ± 0.04 | almost unchanged | strong (almost full) inhibition | not to induce membrane currents | small and slowly desensitizing currents | 38.2 ± 8.5 | 1.58±0.05 | 41.2±13 | 80.3 ± 4.4 | 15±6
2 | 81±3 | 61.3±5 | 9.3 ± 1.7 | 0.55 ± 0.2 | Nc1ncnc2c1ncn2[C@@H]1O[C@H](COP(=O)(O)OP(=O)(O)CP(=O)(O)OP(=O)(O)OC[C@H]2O[C@@H](n3cnc4c(N)ncnc43)C(O)C2O)C(O)C1O (stereo in doubt) [AppCH2ppA] | – | – | – | – | – | – | – | 2.27±0.56 | – | – | –
